Data on 3 compounds can be found in publication PMC10648937, “Drug distribution and efficacy of the DprE1 inhibitor BTZ-043 in the C3HeB/FeJ mouse tuberculosis model” (Antimicrobial Agents and Chemotherapy, 2023).

Structures are written as SMILES. Read-outs that look alike come from different tables or passages of the source.

Assay [1] concerns Mtb Erdman. Briefly: Broth microdilution MIC (Alamar Blue endpoint), with and without 4% huSA (serum-shift assay). The settings on record: Mycobacterium tuberculosis, ERDMAN. (In broth dilution the organism is exposed to a series of concentrations in liquid medium.)
Assay [2] concerns Mtb Erdman. The assay is described as follows: Semi-quantitative MBC (sqMBC) assay. The assay is classed as cell-based, Mycobacterium tuberculosis. The note with it: M. tuberculosis Erdman; for sqMBC: 10 d incubation, 99% (2-log10) CFU reduction of inoculum.
Assay [3] concerns non-replicating Mtb in rabbit caseum. Set-up: method as in PMID 34370580. The settings on record: similarly reported previously; cited from earlier work.
The subject of a further assay is Mtb. On the set-up: method as in PMID 34370580. The settings on record: C3HeB/FeJ mice, 8 weeks (5 of 7 days per week), 100 and 200 mg/kg BID; cited from earlier work.

In the case of `CC(=O)NC[C@H]1CN(c2ccc(N3CCOCC3)c(F)c2)C(=O)O1` [linezolid], the MIC in the assay with Mtb Erdman [1] and with Mtb Erdman [1] (read-out: MIC + huSA) was 1 µg/mL each time. In addition, the sqMBC with Mtb Erdman [2] is more than 8 µg/mL.

Take `COc1ncnc(Cn2cc(C(=O)NCCO)c3ncc(C)cc32)c1C` [TBA-7371]: in assay [3], the “activity against non-replicating Mtb in rabbit caseum MBC assay” value is on record as “lacked appreciable activity”. Also, the MIC (usually the lowest concentration that inhibits growth of the organism) in the assay on Mtb Erdman [1] came to 0.5 µg/mL; in the assay on Mtb Erdman [1] (read-out: MIC + huSA), 1 µg/mL. This compound also registered a sqMBC in the assay on Mtb Erdman [2] of 1 µg/mL. The “sqMBC + huSA” value with Mtb Erdman [2] (with 4% huSA) stood at 1 µg/mL. Besides, the “average lung CFU reduction compared to untreated controls” value with Mtb is given as 1.5 log10.

Regarding `COc1c(N2C[C@@H]3CCCN[C@@H]3C2)c(F)cc2c(=O)c(C(=O)O)cn(C3CC3)c12` [moxifloxacin], the MIC with Mtb Erdman [1] amounted to 0.06 µg/mL. The sqMBC in the assay with Mtb Erdman [2] stood at 0.125 µg/mL.
